Test results from PubChem BioAssay AID248 (DTP/NCI, 2004).
Values joined by “and” are separate entries in the source; they are usually repeats but may differ in a detail not shown here. Equal values may be shown once. Inconclusive results and toxic doses are left out.

System: L1210 leukemia ip in BDF1 mice, survival T/C
Assay: NCI In Vivo Anticancer Drug Screen. Data for tumor model L1210 Leukemia (intraperitoneal) in B6D2F1 (BDF1) mice
Settings: endpoint: mean survival time, higher = longer survival
How it was run: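 Tumor was transplanted into mice, which were then dosed with test compound or vehicle alone. Survival was recorded for each group, and the treated figure was expressed relative to the control figure.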

[1] = dose: 100.0 mg/kg/injection, schedule: Q04DX003 (ip), vehicle: saline
[2] = dose: 100.0 mg/kg/injection, schedule: Q04DX003 (ip), vehicle: Klucel (hydroxypropylcellulose) (HPC)
[3] = dose: 200.0 mg/kg/injection, schedule: Q04DX003 (ip), vehicle: Klucel (hydroxypropylcellulose) (HPC)
[4] = dose: 400.0 mg/kg/injection, schedule: Q04DX003 (ip), vehicle: Klucel (hydroxypropylcellulose) (HPC)
[5] = dose: 100.0 mg/kg/injection, schedule: Q01DX009 (ip), vehicle: Klucel (hydroxypropylcellulose) (HPC)
[6] = dose: 200.0 mg/kg/injection, schedule: Q01DX009 (ip), vehicle: Klucel (hydroxypropylcellulose) (HPC)
[7] = dose: 400.0 mg/kg/injection, schedule: Q01DX009 (ip), vehicle: Klucel (hydroxypropylcellulose) (HPC)
[8] = dose: 100.0 mg/kg/injection, schedule: Q04DX003 (ip), vehicle: saline with Tween-80
[9] = dose: 200.0 mg/kg/injection, schedule: Q04DX003 (ip), vehicle: saline with Tween-80
[10] = dose: 400.0 mg/kg/injection, schedule: Q04DX003 (ip), vehicle: saline with Tween-80
[11] = dose: 100.0 mg/kg/injection, schedule: Q01DX001 (ip), vehicle: other
[12] = dose: 200.0 mg/kg/injection, schedule: Q01DX001 (ip), vehicle: other
[13] = dose: 400.0 mg/kg/injection, schedule: Q01DX001 (ip), vehicle: other
[14] = dose: 25.0 mg/kg/injection, schedule: Q01DX009 (ip), vehicle: Klucel (hydroxypropylcellulose) (HPC)
[15] = dose: 50.0 mg/kg/injection, schedule: Q01DX009 (ip), vehicle: Klucel (hydroxypropylcellulose) (HPC)
[16] = dose: 100.0 mg/kg/injection, schedule: Q01DX001 (ip), vehicle: saline
[17] = dose: 200.0 mg/kg/injection, schedule: Q01DX001 (ip), vehicle: saline
[18] = dose: 400.0 mg/kg/injection, schedule: Q01DX001 (ip), vehicle: saline

With `O=C(O)c1ccc2cc(O)ccc2c1` the T/C [1] was 92 % of control, the T/C (dose: 200.0 mg/kg/injection, schedule: Q04DX003 (ip), vehicle: saline) was 98 % of control and the T/C (dose: 400.0 mg/kg/injection, schedule: Q04DX003 (ip), vehicle: saline) was 97 % of control.

In the case of `CC[C@@H]1CN(C)[C@H]2Cc3c([nH]c4ccccc34)C(=O)C[C@H]1C2C(=O)OC` (some centres undefined), the T/C (dose: 75.0 mg/kg/injection, schedule: Q01DX001 (ip), vehicle: carboxymethylcellulose (CMC)) is reported as 97 % of control, the T/C (dose: 150.0 mg/kg/injection, schedule: Q01DX001 (ip), vehicle: carboxymethylcellulose (CMC)) is reported as 95 % of control and the T/C (dose: 300.0 mg/kg/injection, schedule: Q01DX001 (ip), vehicle: carboxymethylcellulose (CMC)) is reported as 95 % of control.

In the case of `O=c1[nH]c(SCc2ccc([N+](=O)[O-])cc2)nc2ccccc12`, the T/C [2] is reported as 111 % of control, the T/C [3] is reported as 102 % of control and the T/C [4] is reported as 94 % of control.

`CCOc1ccc(OCC)c2c1C(=O)c1ccccc1C2=O` was tested, and the T/C [5] was 97 % of control, the T/C [2] was 95 % of control and the T/C [6] was 100 % of control. The T/C [3] was 100 % of control, the T/C [7] was 97 % of control and the T/C [4] was 97 % of control.

For `CCOC1Cc2ccccc21` (centres undefined), the T/C [8] was 95 % of control, the T/C [9] was 96 % of control and the T/C [10] was 98 % of control.

In the case of `CC1CC(C)(C)N=C(C(Cc2ccc(Br)cc2)c2ccccc2)O1` (centres undefined), the T/C [8] is reported as 97 % of control, the T/C [9] is reported as 92 % of control and the T/C [10] is reported as 95 % of control.

With `CCOC(=O)c1c(O)csc1C` the T/C [5] was 93 % of control, the T/C [2] was 98 % of control and the T/C [6] was 90 % of control. For the same compound, the T/C [3] was 101 % of control, the T/C [7] was 109 % of control and the T/C [4] was 97 % of control.

`CCN(CC)CCOc1cc(C)cc2ccccc12` was tested, and the T/C (dose: 12.5 mg/kg/injection, schedule: Q04DX003 (ip), vehicle: saline) was 87 % of control, the T/C (dose: 25.0 mg/kg/injection, schedule: Q04DX003 (ip), vehicle: saline) was 98 % of control and the T/C (dose: 50.0 mg/kg/injection, schedule: Q04DX003 (ip), vehicle: saline) was 101 % of control. For the same compound, the T/C [1] was 104 % of control.

In the case of `CCOC(=O)CC(C)(C)NCc1ccccc1`, the T/C [2] is reported as 96 % of control.

For `C(=C\c1ccccc1)/CSc1ncnc2nc[nH]c12`, the T/C (dose: 62.5 mg/kg/injection, schedule: Q01DX015 (ip), vehicle: saline) was 106 % of control, the T/C (dose: 125.0 mg/kg/injection, schedule: Q01DX015 (ip), vehicle: saline) was 116 % of control and the T/C (dose: 250.0 mg/kg/injection, schedule: Q01DX015 (ip), vehicle: saline) was 104 % of control. For the same compound, the T/C (dose: 500.0 mg/kg/injection, schedule: Q01DX015 (ip), vehicle: saline) was 166 % of control.

For `O=C(NC(Cc1ccc(O)cc1)C(=O)O)SCc1ccccc1` (centres undefined), the T/C [11] was 100 % of control, the T/C [12] was 102 % of control and the T/C [13] was 102 % of control.

With `CC1=NS(=O)(=O)NC(C)(C)C1` the T/C (dose: 12.5 mg/kg/injection, schedule: Q01DX009 (ip), vehicle: saline) was 93 % of control, the T/C (dose: 25.0 mg/kg/injection, schedule: Q01DX009 (ip), vehicle: saline) was 93 % of control and the T/C (dose: 50.0 mg/kg/injection, schedule: Q01DX001 (ip), vehicle: carboxymethylcellulose (CMC)) was 123 % of control. For the same compound, the T/C (dose: 50.0 mg/kg/injection, schedule: Q01DX009 (ip), vehicle: saline) was 98 % of control, the T/C (dose: 100.0 mg/kg/injection, schedule: Q01DX001 (ip), vehicle: carboxymethylcellulose (CMC)) was 96 % of control and the T/C [5] was 87 % of control.

`Cc1ccc(NC(=O)CCc2ccc(N3C(N)=NC(N)=NC3(C)C)cc2)cc1S(=O)(=O)F` was tested, and the T/C (dose: 100.0 mg/kg/injection, schedule: Q01DX001 (ip), vehicle: Klucel (hydroxypropylcellulose) (HPC)) was 90 % of control and the T/C (dose: 200.0 mg/kg/injection, schedule: Q01DX001 (ip), vehicle: Klucel (hydroxypropylcellulose) (HPC)) was 108 % of control.

For `Cc1cccc(NC(=O)Oc2ccc(Nc3ccccc3)cc2)c1`, the T/C [5] was 96 % of control, the T/C [6] was 102 % of control and the T/C [7] was 98 % of control.

`CC(Br)CNC(=O)c1ccc([N+](=O)[O-])cc1` (centres undefined) was tested, and the T/C (dose: 75.0 mg/kg/injection, schedule: Q01DX009 (ip), vehicle: Klucel (hydroxypropylcellulose) (HPC)) was 107 % of control, the T/C (dose: 150.0 mg/kg/injection, schedule: Q01DX009 (ip), vehicle: Klucel (hydroxypropylcellulose) (HPC)) was 97 % of control and the T/C (dose: 300.0 mg/kg/injection, schedule: Q01DX009 (ip), vehicle: Klucel (hydroxypropylcellulose) (HPC)) was 101 % of control.

`Cc1ccc([N+](=O)[O-])cc1NC(=O)Nc1cccc(C(F)(F)F)c1` was tested, and the T/C [14] was 102 % of control, the T/C [15] was 92 % of control and the T/C [5] was 86 % of control. The T/C [6] was 87 % of control and the T/C [7] was 87 % of control.

With `O=C1C=CC(=O)N1C(c1ccccc1)c1ccccc1` the T/C (dose: 12.5 mg/kg/injection, schedule: Q01DX009 (ip), vehicle: Klucel (hydroxypropylcellulose) (HPC)) was 102 % of control, the T/C [14] was 102 % of control and the T/C [15] was 102 % of control. For the same compound, the T/C (dose: 50.0 mg/kg/injection, schedule: Q04DX002 (ip), vehicle: Klucel (hydroxypropylcellulose) (HPC)) was 94 % of control, the T/C (dose: 100.0 mg/kg/injection, schedule: Q04DX002 (ip), vehicle: Klucel (hydroxypropylcellulose) (HPC)) was 88 % of control and the T/C (dose: 200.0 mg/kg/injection, schedule: Q04DX002 (ip), vehicle: Klucel (hydroxypropylcellulose) (HPC)) was 101 % of control and 116 % of control and 91 % of control. The T/C (dose: 400.0 mg/kg/injection, schedule: Q04DX002 (ip), vehicle: Klucel (hydroxypropylcellulose) (HPC)) was 91 % of control.

`c1ccc(N=N/C(=N/Nc2ccccc2)c2ccccc2)cc1` was tested, and the T/C (dose: 50.0 mg/kg/injection, schedule: Q01DX009 (ip), vehicle: saline with Tween-80) was 90 % of control and the T/C (dose: 100.0 mg/kg/injection, schedule: Q01DX009 (ip), vehicle: saline with Tween-80) was 96 % of control.

`O=CC(O)C(O)C(O)C(O)CO` (centres undefined) was tested, and the T/C (dose: 100.0 mg/kg/injection, schedule: Q01DX009 (ip), vehicle: saline) was 98 % of control, the T/C (dose: 200.0 mg/kg/injection, schedule: Q01DX009 (ip), vehicle: saline) was 96 % of control and the T/C (dose: 400.0 mg/kg/injection, schedule: Q01DX009 (ip), vehicle: saline) was 107 % of control. The T/C (dose: 800.0 mg/kg/injection, schedule: Q01DX009 (ip), vehicle: saline) was 98 % of control.

With `CCCCCCCCCCCCOC(=O)C[n+]1cccc(C(=O)NC)c1` the T/C (dose: 12.5 mg/kg/injection, schedule: Q04DX003 (ip), vehicle: saline with Tween-80) was 101 % of control, the T/C (dose: 25.0 mg/kg/injection, schedule: Q04DX003 (ip), vehicle: saline with Tween-80) was 97 % of control and the T/C (dose: 50.0 mg/kg/injection, schedule: Q04DX003 (ip), vehicle: saline with Tween-80) was 95 % of control.

`O=C(O)c1ccc(OCCOc2ccccc2)c(Cl)c1` was tested, and the T/C (dose: 100.0 mg/kg/injection, schedule: Q01DX009 (ip), vehicle: gum acacia) was 97 % of control, the T/C (dose: 200.0 mg/kg/injection, schedule: Q01DX009 (ip), vehicle: gum acacia) was 88 % of control and the T/C (dose: 400.0 mg/kg/injection, schedule: Q01DX009 (ip), vehicle: gum acacia) was 92 % of control.

With `CC(C)SSC(C)C` the T/C [16] was 105 % of control, the T/C [17] was 108 % of control and the T/C [18] was 89 % of control.

With `CN1c2ccc(Br)c[c]2[Sn]([CH3])([CH3])[c]2cc(Br)ccc21` the T/C [11] was 96 % of control, the T/C [12] was 97 % of control and the T/C [13] was 92 % of control.

In the case of `COc1cc(C=C(C#N)C#N)cc(OC)c1OC`, the T/C (dose: 25.0 mg/kg/injection, schedule: Q04DX002 (ip), vehicle: gum acacia) is reported as 100 % of control, the T/C (dose: 50.0 mg/kg/injection, schedule: Q04DX002 (ip), vehicle: gum acacia) is reported as 110 % of control and the T/C (dose: 100.0 mg/kg/injection, schedule: Q04DX002 (ip), vehicle: gum acacia) is reported as 122 % of control and 91 % of control.

With `CCCCCCCCCCCCOS(=O)(=O)O` the T/C [16] was 98 % of control, the T/C [17] was 95 % of control and the T/C [18] was 98 % of control.
